Test results published in ChEMBL document CHEMBL1944520, “Discovery of 3-aryloxy-lactam analogs as potent androgen receptor full antagonists for treating castration resistant prostate cancer” (Bioorg Med Chem Lett, 2012).
Values after ≈ are worked out from the molar mass of the structure shown.

Columns and labels:
[1] = molecular target: T1, Androgen receptor (Homo sapiens) (UniProt P10275); assay: Agonist activity at androgen receptor expressed in human LNAR cells as induction of luciferase activity by spectrophotometry relative to untreated control; assay type: functional, cell-based
T1 sequence (whole entry): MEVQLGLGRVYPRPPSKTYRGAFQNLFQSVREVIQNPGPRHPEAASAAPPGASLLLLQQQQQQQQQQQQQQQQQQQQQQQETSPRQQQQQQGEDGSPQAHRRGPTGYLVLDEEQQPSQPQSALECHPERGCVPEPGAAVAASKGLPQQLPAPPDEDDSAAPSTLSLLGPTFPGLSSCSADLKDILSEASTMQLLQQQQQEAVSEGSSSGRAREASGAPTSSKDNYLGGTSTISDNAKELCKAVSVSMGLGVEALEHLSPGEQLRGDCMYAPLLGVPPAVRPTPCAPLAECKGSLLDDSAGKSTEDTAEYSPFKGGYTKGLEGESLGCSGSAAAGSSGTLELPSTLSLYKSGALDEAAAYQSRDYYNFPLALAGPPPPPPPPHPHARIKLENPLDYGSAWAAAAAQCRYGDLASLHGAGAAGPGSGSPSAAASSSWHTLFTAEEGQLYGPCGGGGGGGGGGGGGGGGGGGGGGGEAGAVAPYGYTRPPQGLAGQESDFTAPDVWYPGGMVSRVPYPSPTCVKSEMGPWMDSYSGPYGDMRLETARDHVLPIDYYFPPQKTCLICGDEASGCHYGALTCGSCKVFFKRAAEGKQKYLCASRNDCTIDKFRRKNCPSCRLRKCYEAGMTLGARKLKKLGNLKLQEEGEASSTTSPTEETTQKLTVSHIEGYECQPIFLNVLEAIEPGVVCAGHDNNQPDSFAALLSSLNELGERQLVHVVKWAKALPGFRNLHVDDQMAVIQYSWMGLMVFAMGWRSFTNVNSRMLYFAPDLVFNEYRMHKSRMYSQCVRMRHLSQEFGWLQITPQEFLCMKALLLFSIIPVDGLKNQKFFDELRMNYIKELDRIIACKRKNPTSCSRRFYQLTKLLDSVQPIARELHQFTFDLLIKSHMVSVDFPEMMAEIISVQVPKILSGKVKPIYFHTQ

[2] = molecular target: T2, Androgen receptor (Homo sapiens, UniProt P10275); assay: Antagonist activity at androgen receptor expressed in human LNAR cells assessed as inhibition of R1881-induced luciferase activity by spectrophotometry; assay type: functional, cell-based
T2 sequence (P10275 whole entry): T1 sequence (whole entry)

[3] = molecular target: T1, Androgen receptor (Homo sapiens); assay: Antagonist activity at androgen receptor expressed in human LNAR cells assessed as inhibition of R1881-induced luciferase activity at 1 uM by spectrophotometry; assay type: functional, cell-based
[4] = test system: Liver microsomes; assay: Unbound intrinsic clearance in human liver microsomes; assay type: ADME, Microsome
[5] = molecular target: T1, Androgen receptor (Homo sapiens); assay: Antagonist activity at androgen receptor expressed in human LNAR cells assessed as inhibition of R1881-induced luciferase activity at 0.1 uM by spectrophotometry; assay type: functional, cell-based
[6] = test system: Rattus norvegicus; assay: Unbound plasma clearance in iv dosed rat; assay type: ADME, organism-based; settings: in vivo
[7] = Oral bioavailability in rat; assay type: ADME, organism-based; settings: in vivo
[8] = Solubility of the compound at pH 7.4; assay type: physicochemical; settings: buffer
[9] = Fraction unbound in human; assay type: ADME, organism-based; settings: in vivo

SMILES	fold change (FC) [1]	IC50 [2]	inhibition [3]	further results
CC(CO)N1CC(C)(C)[C@@H](Oc2ccc(C#N)c(C(F)(F)F)c2)C1=O (stereo in doubt; 14) [listing 1 of 2 here]	1.06			
COC(=O)CN1CC(C)(C)C(Oc2ccc(C#N)c(C(F)(F)F)c2)C1=O (racemic)	1.05	303 nM		
CC(CO)N1CC(C)(C)[C@@H](Oc2ccc(C#N)c(C(F)(F)F)c2)C1=O (stereo in doubt; 15) [listing 1 of 2 here]		337 nM		
CC1(C)CN(CCO)C(=O)[C@@H]1Oc1ccc(C#N)c(C(F)(F)F)c1	1.03	263 nM		
CC(CO)CN1CC(C)(C)[C@@H](Oc2ccc(C#N)c(C(F)(F)F)c2)C1=O (stereo in doubt; 22)	1.01		96%	
CC(O)CN1CC(C)(C)[C@@H](Oc2ccc(C#N)c(C(F)(F)F)c2)C1=O (stereo in doubt; 18) [listing 1 of 2 here]	0.99			
CC(O)(CO)CN1CC(C)(C)[C@@H](Oc2ccc(C#N)c(C(F)(F)F)c2)C1=O (stereo in doubt; 24)	1.01		17%	
CC1(C)CN(CC#N)C(=O)[C@@H]1Oc1ccc(C#N)c(C(F)(F)F)c1	2.75		89%	
CC(O)CN1CC(C)(C)[C@@H](Oc2ccc(C#N)c(C(F)(F)F)c2)C1=O (single isomer, unassigned) [listing 1 of 2 here]		977 nM		
CC(C)(O)CN1CC(C)(C)[C@@H](Oc2ccc(C#N)c(C(F)(F)F)c2)C1=O	0.9		29%	
CCCCN1CC(C)(C)[C@@H](Oc2ccc(C#N)c(C(F)(F)F)c2)C1=O	2.12		85%	
CC(CO)CN1CC(C)(C)[C@@H](Oc2ccc(C#N)c(C(F)(F)F)c2)C1=O (stereo in doubt; 23) [listing 1 of 2 here]		371 nM		
CC1(C)CN(CCC#N)C(=O)[C@@H]1Oc1cnc(C#N)c(C(F)(F)F)c1	0.89		52%	
CC(CO)N1CC(C)(C)[C@@H](Oc2ccc(C#N)c(C(F)(F)F)c2)C1=O (stereo in doubt; 14) [listing 2 of 2 here]		371 nM		
CC1(C)CN(CCC#N)C(=O)[C@@H]1Oc1ccc(C#N)cc1	0.95		10%	
CC1(C)CNC(=O)[C@@H]1Oc1ccc(C#N)c(C(F)(F)F)c1	1.31	105 nM		
CC1(C)CN(CCCO)C(=O)[C@@H]1Oc1ccc(C#N)c(C(F)(F)F)c1	1.11		87%	

SMILES	fold change (FC) [1]	IC50 [2]	inhibition [3]	further results
CC(O)CN1CC(C)(C)[C@@H](Oc2ccc(C#N)c(C(F)(F)F)c2)C1=O (stereo in doubt; 18) [listing 2 of 2 here]		216 nM		
C[C@@H](c1nnc(-c2ccccc2)o1)N1CC(C)(C)[C@@H](Oc2ccc(C#N)c(C(F)(F)F)c2)C1=O	3.09			CL free [4]: 43.87 µL/min/mg; inhibition [5]: 62%; CL free [6]: 4294 mL/min/kg; bioavailability [7]: 25%; solubility [8]: 3.7 µg/mL (≈ 7.86 µM); fraction unbound [9]: 0.0181
Cc1nnc(CN2CC(C)(C)[C@@H](Oc3ccc(C#N)c(C(F)(F)F)c3)C2=O)o1	0.97	633 nM		solubility [8]: 217 µg/mL (≈ 550 µM)
CC1(C)CN(CCC#N)C(=O)[C@@H]1Oc1ccc(C#N)c(C(F)(F)F)c1	0.89	131 nM		CL free [4]: 19.1 µL/min/mg; CL free [6]: 170 mL/min/kg; bioavailability [7]: 64%; solubility [8]: 57 µg/mL (≈ 162 µM); fraction unbound [9]: 0.226
CC1(C)CN(CCC#N)C(=O)[C@@H]1Oc1ccc(C#N)c(Cl)c1	0.99	68 nM		solubility [8]: 159 µg/mL (≈ 500 µM)
CC(c1nnc(-c2cccc(F)c2)o1)N1CC(C)(C)C(Oc2ccc(C#N)c(C(F)(F)F)c2)C1=O (racemic)	1.43	77 nM		CL free [4]: 115 µL/min/mg; CL free [6]: 1585 mL/min/kg; bioavailability [7]: 10%; solubility [8]: 3.8 µg/mL (≈ 7.78 µM); fraction unbound [9]: 0.00825
CNC(=O)CN1CC(C)(C)C(Oc2ccc(C#N)c(C(F)(F)F)c2)C1=O (racemic)	0.85		23%	
CC1(C)CN(CCC#N)C(=O)[C@@H]1Oc1cc(C(F)(F)F)c(C#N)cn1	1.16		47%	
CCCN1CC(C)(C)[C@@H](Oc2ccc(C#N)c(C(F)(F)F)c2)C1=O	1.45		88%	
CC(CO)N1CC(C)(C)[C@@H](Oc2ccc(C#N)c(C(F)(F)F)c2)C1=O (stereo in doubt; 15) [listing 2 of 2 here]	1.02			
CC(O)CN1CC(C)(C)[C@@H](Oc2ccc(C#N)c(C(F)(F)F)c2)C1=O (single isomer, unassigned) [listing 2 of 2 here]	0.97			
CC(CO)CN1CC(C)(C)[C@@H](Oc2ccc(C#N)c(C(F)(F)F)c2)C1=O (stereo in doubt; 23) [listing 2 of 2 here]	0.95			
CC1(C)CN(Cc2nnc(-c3ccccc3)o2)C(=O)[C@@H]1Oc1ccc(C#N)c(C(F)(F)F)c1	0.95	71 nM		CL free [4]: 19.3 µL/min/mg; CL free [6]: 921 mL/min/kg; bioavailability [7]: 10%; solubility [8]: 5.9 µg/mL (≈ 12.9 µM); fraction unbound [9]: 0.0127
CC(O)(CO)CN1CC(C)(C)[C@@H](Oc2ccc(C#N)c(C(F)(F)F)c2)C1=O (stereo in doubt; 25)	0.92		27%	
CC(=O)CN1CC(C)(C)[C@@H](Oc2ccc(C#N)c(C(F)(F)F)c2)C1=O	0.91	266 nM		
CC1(C)CN(C(C)(C)CO)C(=O)[C@@H]1Oc1ccc(C#N)c(C(F)(F)F)c1	0.91	761 nM		
